From PubChem BioAssay (NCI)
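48-hour exposure; five concentrations; linearly interpolated endpoints. GI50 marks 50% less growth. TGI: concentration producing complete growth inhibition.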

Key:
Assay in all cases: NCI anticancer screen, dose series, 48 h
MOLT-4 leukemia = tested on: MOLT-4 leukemia
OVCAR-4 ovarian = tested on: OVCAR-4 ovarian
ACHN renal = tested on: ACHN renal
OVCAR-5 ovarian = tested on: OVCAR-5 ovarian
MALME-3M melanoma = tested on: MALME-3M melanoma
HT29 colon = tested on: HT29 colon
IGROV1 ovarian = tested on: IGROV1 ovarian
SR leukemia = tested on: SR leukemia
HCT-116 colon = tested on: HCT-116 colon
SW-620 colon = tested on: SW-620 colon
SK-OV-3 ovarian = tested on: SK-OV-3 ovarian
CAKI-1 renal = tested on: CAKI-1 renal
HL-60(TB) leukemia = tested on: HL-60(TB) leukemia
CCRF-CEM leukemia = tested on: CCRF-CEM leukemia
RPMI-8226 leukemia = tested on: RPMI-8226 leukemia
SK-MEL-28 melanoma = tested on: SK-MEL-28 melanoma
HCT-15 colon = tested on: HCT-15 colon
K-562 leukemia = tested on: K-562 leukemia
HOP-62 NSCLC = tested on: HOP-62 NSCLC
NCI-H226 lung = tested on: NCI-H226 lung
SNB-19 CNS = tested on: SNB-19 CNS
SF-295 CNS = tested on: SF-295 CNS
NCI-H522 lung = tested on: NCI-H522 lung
TK-10 renal = tested on: TK-10 renal
BT-549 breast = tested on: BT-549 breast
HS 578T breast = tested on: HS 578T breast
RXF 393 renal = tested on: RXF 393 renal
PC-3 prostate = tested on: PC-3 prostate
SNB-75 CNS = tested on: SNB-75 CNS
SN12C renal = tested on: SN12C renal
M14 melanoma = tested on: M14 melanoma
OVCAR-8 ovarian = tested on: OVCAR-8 ovarian
U251 CNS = tested on: U251 CNS
COLO 205 colon = tested on: COLO 205 colon
A498 renal = tested on: A498 renal
T-47D breast = tested on: T-47D breast
NCI-H23 lung = tested on: NCI-H23 lung
EKVX NSCLC = tested on: EKVX NSCLC
MCF7 breast = tested on: MCF7 breast
UO-31 renal = tested on: UO-31 renal
UACC-257 melanoma = tested on: UACC-257 melanoma
SK-MEL-5 melanoma = tested on: SK-MEL-5 melanoma
NCI/ADR-RES ovarian = tested on: NCI/ADR-RES ovarian
NCI-H460 lung = tested on: NCI-H460 lung
KM12 colon = tested on: KM12 colon
SK-MEL-2 melanoma = tested on: SK-MEL-2 melanoma
UACC-62 melanoma = tested on: UACC-62 melanoma
SF-268 CNS = tested on: SF-268 CNS
A549 NSCLC = tested on: A549 NSCLC
MDA-MB-231 breast = tested on: MDA-MB-231 breast
HCC-2998 colon = tested on: HCC-2998 colon
HOP-92 NSCLC = tested on: HOP-92 NSCLC
786-0 renal = tested on: 786-0 renal
DU-145 prostate = tested on: DU-145 prostate
SF-539 CNS = tested on: SF-539 CNS
MDA-MB-435 = tested on: MDA-MB-435

Compound: Nc1ccccc1NC(=O)c1ccc(NC(=O)C/C=C/c2cccnc2)cc1
- GI50 (MOLT-4 leukemia): 1050 nM
- TGI (MOLT-4 leukemia): > 50 µM
- GI50 (OVCAR-4 ovarian): 3.68 µM
- TGI (OVCAR-4 ovarian): > 50 µM
- GI50 (ACHN renal): 2240 nM
- TGI (ACHN renal): > 50 µM
- GI50 (OVCAR-5 ovarian): 803 nM
- TGI (OVCAR-5 ovarian): > 50 µM
- GI50 (MALME-3M melanoma): 247 nM
- TGI (MALME-3M melanoma): 3.56 µM
- GI50 (HT29 colon): 1170 nM
- TGI (HT29 colon): > 50 µM
- GI50 (IGROV1 ovarian): 1140 nM
- TGI (IGROV1 ovarian): > 50 µM
- GI50 (SR leukemia): 382 nM
- TGI (SR leukemia): > 50 µM
- GI50 (HCT-116 colon): 176 nM
- TGI (HCT-116 colon): 4.37 µM
- GI50 (SW-620 colon): 231 nM
- TGI (SW-620 colon): > 50 µM
- GI50 (SK-OV-3 ovarian): 2400 nM
- TGI (SK-OV-3 ovarian): > 50 µM
- GI50 (CAKI-1 renal): 2390 nM
- TGI (CAKI-1 renal): > 50 µM
- GI50 (HL-60(TB) leukemia): 448 nM
- TGI (HL-60(TB) leukemia): > 50 µM
- GI50 (CCRF-CEM leukemia): 225 nM
- TGI (CCRF-CEM leukemia): > 50 µM
- GI50 (RPMI-8226 leukemia): 605 nM
- TGI (RPMI-8226 leukemia): 5.57 µM
- GI50 (SK-MEL-28 melanoma): 962 nM
- TGI (SK-MEL-28 melanoma): 2650 nM
- GI50 (HCT-15 colon): 1320 nM
- TGI (HCT-15 colon): > 50 µM
- GI50 (K-562 leukemia): 289 nM
- TGI (K-562 leukemia): > 50 µM
- GI50 (HOP-62 NSCLC): 2000 nM
- TGI (HOP-62 NSCLC): > 50 µM
- GI50 (NCI-H226 lung): 1430 nM
- TGI (NCI-H226 lung): > 50 µM
- GI50 (SNB-19 CNS): 2250 nM
- TGI (SNB-19 CNS): > 50 µM
- GI50 (SF-295 CNS): 1670 nM
- TGI (SF-295 CNS): 11.3 µM
- GI50 (NCI-H522 lung): 513 nM
- TGI (NCI-H522 lung): > 50 µM
- GI50 (TK-10 renal): 103 nM
- TGI (TK-10 renal): > 50 µM
- GI50 (BT-549 breast): 1170 nM
- TGI (BT-549 breast): 4.72 µM
- GI50 (HS 578T breast): 1660 nM
- TGI (HS 578T breast): > 50 µM
- GI50 (RXF 393 renal): 784 nM
- TGI (RXF 393 renal): 3.86 µM
- GI50 (PC-3 prostate): 1260 nM
- TGI (PC-3 prostate): > 50 µM
- GI50 (SNB-75 CNS): 1260 nM
- TGI (SNB-75 CNS): > 50 µM
- GI50 (SN12C renal): 320 nM
- TGI (SN12C renal): > 50 µM
- GI50 (M14 melanoma): 1370 nM
- TGI (M14 melanoma): > 50 µM
- GI50 (OVCAR-8 ovarian): 159 nM
- TGI (OVCAR-8 ovarian): > 50 µM
- GI50 (U251 CNS): 1040 nM
- TGI (U251 CNS): > 50 µM
- GI50 (COLO 205 colon): 813 nM
- TGI (COLO 205 colon): 7.1 µM
- GI50 (A498 renal): 586 nM
- TGI (A498 renal): 2290 nM
- GI50 (T-47D breast): 623 nM
- TGI (T-47D breast): > 50 µM
- GI50 (NCI-H23 lung): 1550 nM
- TGI (NCI-H23 lung): 26.6 µM
- GI50 (EKVX NSCLC): 2250 nM
- TGI (EKVX NSCLC): > 50 µM
- GI50 (MCF7 breast): 1090 nM
- TGI (MCF7 breast): 8.32 µM
- GI50 (UO-31 renal): 1540 nM
- TGI (UO-31 renal): > 50 µM
- GI50 (UACC-257 melanoma): 1230 nM
- TGI (UACC-257 melanoma): > 50 µM
- GI50 (SK-MEL-5 melanoma): 957 nM
- TGI (SK-MEL-5 melanoma): 1910 nM
- GI50 (NCI/ADR-RES ovarian): 3.23 µM
- TGI (NCI/ADR-RES ovarian): > 50 µM
- GI50 (NCI-H460 lung): 1450 nM
- TGI (NCI-H460 lung): > 50 µM
- GI50 (KM12 colon): 8.48 µM
- TGI (KM12 colon): > 50 µM
- GI50 (SK-MEL-2 melanoma): 2390 nM
- TGI (SK-MEL-2 melanoma): > 50 µM
- GI50 (UACC-62 melanoma): 1060 nM
- TGI (UACC-62 melanoma): 4.98 µM
- GI50 (SF-268 CNS): 1930 nM
- TGI (SF-268 CNS): > 50 µM
- GI50 (A549 NSCLC): 2800 nM
- TGI (A549 NSCLC): > 50 µM
- GI50 (MDA-MB-231 breast): 6.42 µM
- TGI (MDA-MB-231 breast): > 50 µM
- GI50 (HCC-2998 colon): 953 nM
- TGI (HCC-2998 colon): 4.54 µM
- GI50 (HOP-92 NSCLC): 341 nM
- TGI (HOP-92 NSCLC): 8.33 µM
- GI50 (786-0 renal): 2740 nM
- TGI (786-0 renal): > 50 µM
- GI50 (DU-145 prostate): 905 nM
- TGI (DU-145 prostate): 2970 nM
- GI50 (SF-539 CNS): 181 nM
- TGI (SF-539 CNS): 26.4 µM
- GI50 (MDA-MB-435): 1390 nM
- TGI (MDA-MB-435): 8.02 µM
